Earlier results as cited in patent US20100311674A1, “PHARMACEUTICAL COMPOSITIONS WITH A MECHANISM OF MULTI-TARGET RECEPTOR RETROACTION FOR TREATING DEPRESSION” (Yu-Fen Chi, priority 2007, published 2010).

What was measured:
[1] = cited from earlier work
[2] = in the human body; cited from earlier work

SMILES | Anti-depression function (in words) ([1]; clinical trials) | Side effect (in words) ([1]; in vivo) | Conversion rate of glycyrrhizic acid to glycyrrhetinic acid [2]
COc1ccc(C2CNC(=O)C2)cc1OC1CCCC1 (stereo not drawn) [Rolipram] | obvious anti-depression function | severe emesis | –
CC1(C)[C@@H](O[C@H]2O[C@H](C(=O)O)[C@@H](O)[C@H](O)[C@H]2O[C@@H]2O[C@H](C(=O)O)[C@@H](O)[C@H](O)[C@H]2O)CC[C@]2(C)[C@H]3C(=O)C=C4[C@@H]5C[C@@](C)(C(=O)O)CC[C@]5(C)CC[C@@]4(C)[C@]3(C)CC[C@@H]12 [glycyrrhizic acid] | – | – | ~100%
